Reference: patent publication US20230116602A1, “MCL1 INHIBITORS AND USES THEREOF” (California Institute of Technology, priority 2019, published 2023)
Read-outs that look alike come from different tables or passages of the source.

Key:
BCLXL = BCLXL (Homo sapiens, UniProt Q07817); assay: BCLXL affinity assay (competition binding, qPCR readout); details: recombinant BCLXL, 11-point 3-fold dilution series
Protocol: (§1) Recombinant MCL1, BCL2 and BCXL proteins were prepared in either an E. coli host derived from the BL21 strain or in HEK-293 cells. The recombinant proteins were subsequently tagged with DNA for qPCR detection. Streptavidin-coated magnetic beads were treated for 30 minutes at room temperature with the respective biotinylated peptide ligands for each recombinant protein to generate affinity resins for the assays. The liganded beads were blocked with excess biotin and washed with blocking buffer (SeaBlock (Pierce), 1% BSA, 0.05% Tween 20, 1 mM DTT) to remove unbound ligand and to reduce nonspecific binding. Binding reactions were assembled by combining recombinant protein, liganded affinity beads, and test compounds in 1× binding buffer (20% SeaBlock, 0.17×PBS, 0.05% Tween 20, 6 mM DTT). Test compounds were prepared as 111X stocks in 100% DMSO. The compounds were then diluted directly into the assays such that the final concentration of DMSO was 0.9%. The assay plates were incubated at room temperature with shaking for 1 hour and the affinity beads were washed with wash buffer (1×PBS, 0.05% Tween 20). The beads were then re-suspended in elution buffer (1×PBS, 0.05% Tween 20, 0.5 μM non-biotinylated affinity ligand) and incubated at room temperature with shaking for 30 minutes. The recombinant protein concentration in the eluates was measured by qPCR. Kds were determined using an 11-point 3-fold compound dilution series with three DMSO control points.

[1] = test system: drug-sensitive cell lines of Table 3; assay: Cell line growth retardation assay, sensitive cohort; type: cell-based, Human; details: for IC50: arithmetic mean of IC50s over the sensitive cohort of Table 3, 6 days growth, read-out: AvgSen IC50; for Fold Diff: average IC50 of resistant cohort divided by average IC50 of sensitive cohort
Outline: (§2)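 Cell lines classed as MCL1-inhibition sensitive or resistant were seeded, rested 24 h, then exposed to 10–0.0032 μM compound for 6 days. Cells were counted by imaging; growth inhibition was the ratio of population doublings with vs without compound from a pre-treatment baseline. IC50 from curve fits, averaged per cohort.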

BCL2 = BCL2 (Homo sapiens, UniProt P10415); assay: BCL2 affinity assay (competition binding, qPCR readout); details: recombinant BCL2, 11-point 3-fold dilution series
Sequence of BCL2 (P10415 whole entry): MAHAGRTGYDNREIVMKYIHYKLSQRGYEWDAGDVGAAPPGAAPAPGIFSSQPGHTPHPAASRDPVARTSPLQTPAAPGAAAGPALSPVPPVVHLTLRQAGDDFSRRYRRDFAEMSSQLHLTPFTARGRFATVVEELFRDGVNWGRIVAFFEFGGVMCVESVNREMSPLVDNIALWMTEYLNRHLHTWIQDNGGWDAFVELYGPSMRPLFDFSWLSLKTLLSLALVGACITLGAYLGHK
Protocol: as §1

MCL1 = MCL1 (Homo sapiens, UniProt Q07820); assay: MCL1 affinity assay (competition binding, qPCR readout); details: recombinant MCL1, 11-point 3-fold dilution series
Sequence of MCL1 (Q07820 whole entry): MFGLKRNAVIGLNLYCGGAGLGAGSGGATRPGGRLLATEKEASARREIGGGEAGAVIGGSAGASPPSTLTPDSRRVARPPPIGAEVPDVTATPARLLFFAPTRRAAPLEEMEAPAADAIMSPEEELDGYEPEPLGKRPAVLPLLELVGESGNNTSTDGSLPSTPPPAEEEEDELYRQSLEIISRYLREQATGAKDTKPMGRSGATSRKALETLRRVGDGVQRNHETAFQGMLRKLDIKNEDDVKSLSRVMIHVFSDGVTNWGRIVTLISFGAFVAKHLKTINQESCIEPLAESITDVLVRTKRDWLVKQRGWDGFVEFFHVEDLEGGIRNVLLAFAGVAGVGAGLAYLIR
Outline: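 Competition binding: DNA-tagged recombinant protein (E. coli BL21-derived or HEK-293), biotinylated peptide ligand-loaded streptavidin beads and compound incubated 1 hour at room temperature, 0.9% DMSO final. Bound protein eluted with 0.5 μM non-biotinylated ligand and quantified by qPCR; Kd from 11-point 3-fold dilution series.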

[2] = test system: drug-resistant cell lines of Table 3; assay: Cell line growth retardation assay, resistant cohort; type: cell-based, Human; details: Homo sapiens, 144 h; arithmetic mean of IC50s over the resistant cohort of Table 3, 6 days growth; read-out: AvgRes IC50
Outline: as §2

Sequence of BCLXL (Q07817 whole entry): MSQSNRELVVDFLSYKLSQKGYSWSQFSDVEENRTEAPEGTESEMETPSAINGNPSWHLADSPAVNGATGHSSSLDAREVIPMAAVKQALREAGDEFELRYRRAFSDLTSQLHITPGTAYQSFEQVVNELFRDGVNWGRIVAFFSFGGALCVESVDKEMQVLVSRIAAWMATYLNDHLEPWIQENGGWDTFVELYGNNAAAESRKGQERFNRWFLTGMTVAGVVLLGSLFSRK

Row | Compound | Kd (BCLXL) [nM] | IC50 ([1]; Homo sapiens, 144 h) [nM] | Fold Diff [1] | Kd (BCL2) [nM] | Kd (MCL1) [nM] | IC50 [2] [nM] | IC50 [1] [nM]
1 | Cc1c(-c2c(-c3cccc(F)c3)ncc3snc(O[C@H](Cc4ccccc4)C(=O)O)c23)ccc(OCCN2CCN(C)CC2)c1Cl (atropisomer, axis not shown) [Compound 92] | > 1500 | 1000 to 5000 | − (“−” represents a fold difference less than 10) | > 1500 | 501 to 1500 | > 5000 | –
2 | COc1ccccc1-c1nccc(COc2ccccc2C[C@@H](Oc2nsc3cnc(-c4ccccn4)c(-c4ccc(OCCN5CCN(C)CC5)c(Cl)c4C)c23)C(=O)O)n1 (atropisomer, axis not shown) [Compound 53] | > 1500 | > 5000 | − (“−” represents a fold difference less than 10) | > 1500 | ≤ 100 | > 5000 | –
3 | Cc1c(-c2c(C3CC3)ncc3snc(O[C@H](Cc4ccccc4OCc4ccnn4CC(F)(F)F)C(=O)O)c23)ccc(OCCN2CCN(C)CC2)c1Cl (atropisomer, axis not shown) [Compound 30] | > 1500 | 1000 to 5000 | − (“−” represents a fold difference less than 10) | > 1500 | ≤ 100 | > 5000 | –
4 | COc1cccc(-c2ncc3snc(O[C@H](Cc4ccccc4OCc4ccnc(-c5ccccc5OC)n4)C(=O)O)c3c2-c2ccc(OCCN3CCCCC3)c(Cl)c2C)c1 (atropisomer, axis not shown) [Compound 43] | > 1500 | 1000 to 5000 | − (“−” represents a fold difference less than 10) | > 1500 | ≤ 100 | > 5000 | –
5 | Cc1c(-c2c(-c3ccc(F)cc3)ncc3snc(O[C@H](Cc4ccccc4OCc4ccnn4CC(F)(F)F)C(=O)O)c23)ccc(OCCN2CCN(C)CC2)c1Cl (single isomer, unassigned) [Compound 6] | > 1500 | – | − (“−” represents a fold difference less than 10) | > 1500 | 101 to 500 | > 5000 | 1000 to 5000
6 | COc1cc(-c2nccc(COc3ccccc3C[C@@H](Oc3nsc4cnc(-c5cccc(F)c5)c(-c5ccc(OCCN6CCN(C)CC6)c(Cl)c5C)c34)C(=O)O)n2)ccn1 (atropisomer, axis not shown) [Compound 71] | > 1500 | ≤ 1000 | + (“+” represents a fold difference of 10 or more) | > 1500 | 101 to 500 | > 5000 | –
7 | Cc1c(-c2c(-c3cccc(C(F)(F)F)c3)ncc3snc(O[C@H](Cc4ccccc4OCc4ccnn4CC(F)(F)F)C(=O)O)c23)ccc(OCCN2CCN(C)CC2)c1Cl (atropisomer, axis not shown) [Compound 22] | > 1500 | 1000 to 5000 | − (“−” represents a fold difference less than 10) | > 1500 | 501 to 1500 | > 5000 | –
8 | Cc1c(-c2c(-c3cccc4c3ccn4C)ncc3snc(O[C@H](Cc4ccccc4OCc4ccnn4CC(F)(F)F)C(=O)O)c23)ccc(OCCN2CCN(C)CC2)c1Cl (atropisomer, axis not shown) [Compound 15] | > 1500 | > 5000 | − (“−” represents a fold difference less than 10) | 501 to 1500 | 501 to 1500 | > 5000 | –
9 | Cc1c(-c2c(-c3cccc4ccoc34)ncc3snc(O[C@H](Cc4ccccc4OCc4ccnn4CC(F)(F)F)C(=O)O)c23)ccc(OCCN2CCN(C)CC2)c1Cl (atropisomer, axis not shown) [Compound 21] | > 1500 | 1000 to 5000 | − (“−” represents a fold difference less than 10) | > 1500 | 101 to 500 | > 5000 | –
10 | Cc1c(-c2c(-c3cccc4c3CCC4)ncc3snc(O[C@H](Cc4ccccc4OCc4ccnn4CC(F)(F)F)C(=O)O)c23)ccc(OCCN2CCN(C)CC2)c1Cl (atropisomer, axis not shown) [Compound 13] | > 1500 | > 5000 | − (“−” represents a fold difference less than 10) | > 1500 | > 1500 | > 5000 | –
11 | Cc1c(-c2c(-c3ccc4c(ccn4C)c3)ncc3snc(O[C@H](Cc4ccccc4OCc4ccnn4CC(F)(F)F)C(=O)O)c23)ccc(OCCN2CCN(C)CC2)c1Cl (atropisomer, axis not shown) [Compound 10] | > 1500 | > 5000 | − (“−” represents a fold difference less than 10) | > 1500 | > 1500 | > 5000 | –
12 | COc1cccc(-c2ncc3snc(O[C@H](Cc4ccccc4OCc4ccnc(-c5ccccc5OC)n4)C(=O)O)c3c2-c2ccc(OC[C@H]3CCCN3C)c(Cl)c2C)c1 (atropisomer, axis not shown) [Compound 48] | > 1500 | – | – | > 1500 | ≤ 100 | – | –
13 | Cc1c(-c2c(-c3cnn(C)c3)ncc3snc(O[C@H](Cc4ccccc4OCc4ccnn4CC(F)(F)F)C(=O)O)c23)ccc(OCCN2CCN(C)CC2)c1Cl (atropisomer, axis not shown) [Compound 28] | > 1500 | – | – | > 1500 | 501 to 1500 | – | –
14 | COc1ccccc1C[C@@H](Oc1nsc2cnc(-c3cccc(F)c3)c(-c3ccc(OCCN4CCN(C)CC4)c(Cl)c3C)c12)C(=O)O (atropisomer, axis not shown) [Compound 93] | – | 1000 to 5000 | − (“−” represents a fold difference less than 10) | – | 101 to 500 | > 5000 | –
15 | CCOc1cccc(-c2ncc3snc(O[C@H](Cc4ccccc4OCc4ccnc(-c5ccccc5OC)n4)C(=O)O)c3c2-c2ccc(OCCN3CCN(C)CC3)c(Cl)c2C)c1 (atropisomer, axis not shown) [Compound 87] | – | ≤ 1000 | + (“+” represents a fold difference of 10 or more) | – | ≤ 100 | > 5000 | –
16 | CCn1ccc(-c2ncc3snc(O[C@H](Cc4ccccc4OCc4ccnc(-c5ccccc5OC)n4)C(=O)O)c3c2-c2ccc(OCCN3CCN(C)CC3)c(Cl)c2C)n1 (atropisomer, axis not shown) [Compound 76] | – | > 5000 | − (“−” represents a fold difference less than 10) | – | 501 to 1500 | > 5000 | –
17 | Cc1c(-c2cc(-n3c(=O)n(C)c4cc(Cl)ccc43)cc3snc(O[C@H](Cc4ccccc4OCc4ccnn4CC(F)(F)F)C(=O)O)c23)ccc(OCCN2CCN(C)CC2)c1Cl [Compound 99] | – | > 5000 | − (“−” represents a fold difference less than 10) | – | > 1500 | > 5000 | –
18 | Cc1c(-c2c(C3CCC3)ncc3snc(O[C@H](Cc4ccccc4OCc4ccnc(-c5cccc(N6CCOCC6)c5)n4)C(=O)O)c23)ccc(OCCN2CCN(C)CC2)c1Cl (atropisomer, axis not shown) [Compound 112] | – | ≤ 1000 | + (“+” represents a fold difference of 10 or more) | – | ≤ 100 | > 5000 | –
19 | COc1ccccc1-c1nccc(COc2ccccc2C[C@@H](Oc2nsc3cnc(-c4cnn(CC(C)C)c4)c(-c4ccc(OCCN5CCN(C)CC5)c(Cl)c4C)c23)C(=O)O)n1 (atropisomer, axis not shown) [Compound 79] | – | ≤ 1000 | − (“−” represents a fold difference less than 10) | – | 501 to 1500 | 1000 to 5000 | –
20 | COc1ccccc1-c1nccc(COc2ccccc2C[C@@H](Oc2nsc3cnc(-c4ccc(F)cc4C)c(-c4ccc(OCCN5CCN(C)CC5)c(Cl)c4C)c23)C(=O)O)n1 (atropisomer, axis not shown) [Compound 86] | – | 1000 to 5000 | − (“−” represents a fold difference less than 10) | – | 501 to 1500 | > 5000 | –
21 | COc1ccccc1-c1nccc(COc2ccccc2C[C@@H](Oc2nsc3cnc(-c4cccc(F)c4)c(-c4ccc(OCCN5CCN(C)CC5)c(Cl)c4C)c23)C(=O)O)n1 (atropisomer, axis not shown) [Compound 35] | – | ≤ 1000 | + (“+” represents a fold difference of 10 or more) | – | ≤ 100 | > 5000 | –
